This note sets out measurements from patent US20140221361A1, “C-19 MODIFIED TRITERPENOIDS WITH HIV MATURATION INHIBITORY ACTIVITY” (priority 2013, published 2014).

For one assay, the system named is recombinant NL4-3 virus (Renilla luciferase in nef, Gag P373S). Kind of assay: HIV cell culture assay (luciferase reporter, MT-2 cells). The note with it: MT-2 cells infected for 4-5 days with NLRluc recombinants; luciferase activity; serial dilutions of inhibitor. In kind it is cell-based, HIV-1. The procedure: MT-2 cells and 293T cells were obtained from the NIH AIDS Research and Reference Reagent Program. MT-2 cells were propagated in RPMI 1640 media supplemented with 10% heat inactivated fetal bovine serum, […]. The 293T cells were propagated in DMEM media supplemented with 10% heat inactivated fetal bovine serum (FBS), 100 units/ml penicillin G and 100 µg/ml streptomycin. The proviral DNA clone of NL4-3 was obtained from the NIH AIDS Research and Reference Reagent Program. A recombinant NL4-3 virus, in which a section of the nef gene from NL4-3 was replaced with the Renilla luciferase gene, was used as a reference virus. In addition, residue Gag P373 was converted to P373S. Briefly, the recombinant virus was prepared by transfection of the altered proviral clone of NL4-3. Transfections were performed in 293T cells using LipofectAMINE PLUS from Invitrogen (Carlsbad, Calif.), according to manufacturer's instruction. The virus was titered in MT-2 cells using luciferase enzyme activity as a marker. Luciferase was quantitated using the Dual Luciferase kit from Promega (Madison, Wis.), with modifications to the manufacturer's protocol. The diluted Passive Lysis solution was pre-mixed with the re-suspended Luciferase Assay Reagent and the re-suspended Stop & Glo Substrate (2:1:1 ratio). Fifty (50) μL of the mixture was added to each aspirated well on assay plates and luciferase activity was measured immediately on a Wallac TriLux (Perkin-Elmer). Antiviral activities of inhibitors toward the recombinant virus were quantified by measuring luciferase activity in cells infected for 4-5 days with NLRluc recombinants in the presence serial dilutions of the inhibitor.
On to `CC(CO)[C@@H]1CC[C@]2(NCCN3CCS(=O)(=O)CC3)CC[C@]3(C)[C@H](CC[C@@H]4[C@@]5(C)CC=C(c6ccc(C(=O)O)c(F)c6)C(C)(C)[C@@H]5CC[C@]43C)[C@@H]12` (single isomer, unassigned) [Example A4], for which the EC50 came out at 2.34 nM.

Still in this assay, the particulars now being: Renilla, NL43, MT-2 cells infected for 4-5 days with NLRluc recombinants; luciferase activity; serial dilutions of inhibitor.
Consider `CC(C)(O)[C@@H]1CC[C@]2(NCCN3CCS(=O)(=O)CC3)CC[C@]3(C)[C@H](CC[C@@H]4[C@@]5(C)CC=C(C6=CCC(C(=O)O)CC6)C(C)(C)[C@@H]5CC[C@]43C)[C@@H]12` (stereo partly drawn) [Example 22, 4-((1R,3aS,5aR,5bR,7aR,11aS,11bR,13aR,13bS)-3a-((2-(1,1-dioxidothiomorpholino)ethyl)amino)-1-(2-hydroxypropan-2-yl)-5a,5b,8,8,11a-pentamethyl-2,3,3a,4,5,5a,5b,6,7,7a,8,11,11a,11b,12,13,13a,13b-octadecahydro-1H-cyclopenta[a]chrysen-9-yl)cyclohex-3-enecarboxylic acid], for which the concentration for a half-maximal effect (EC50) stood at 0.519 nM.
Consider `CN[C@@H]1CC[C@]2(NCCN3CCS(=O)(=O)CC3)CC[C@]3(C)[C@H](CC[C@@H]4[C@@]5(C)CC=C(c6ccc(C(=O)O)cc6)C(C)(C)[C@@H]5CC[C@]43C)[C@@H]12` [Example B37, 4-((1R,3aR,5aR,5bR,7aR,11aS,11bR,13aR,13bS)-3a-((2-(1,1-dioxidothiomorpholino)ethyl)amino)-5a,5b,8,8,11a-pentamethyl-1-(methylamino)-2,3,3a,4,5,5a,5b,6,7,7a,8,11,11a,11b,12,13,13a,13b-octadecahydro-1H-cyclopenta[a]chrysen-9-yl)benzoic acid], for which the concentration for a half-maximal effect (EC50) came out at 40 nM.
In the case of `CC(=O)[C@@H]1CC[C@]2(N)CC[C@]3(C)[C@H](CC[C@@H]4[C@@]5(C)CC=C(c6ccc(C(=O)O)cc6)C(C)(C)[C@@H]5CC[C@]43C)[C@@H]12` [Example B46, 4-((1R,3aS,5aR,5bR,7aR,11aS,11bR,13aR,13bS)-1-acetyl-3a-amino-5a,5b,8,8,11a-pentamethyl-2,3,3a,4,5,5a,5b,6,7,7a,8,11,11a,11b,12,13,13a,13b-octadecahydro-1H-cyclopenta[a]chrysen-9-yl)benzoic acid], the EC50 worked out at 290 nM.
Regarding `C=C(COCCN1CCOCC1)[C@@H]1CC[C@]2(C(=O)NCCCN3CCCC3=O)CC[C@]3(C)[C@H](CC[C@@H]4[C@@]5(C)CC=C(c6ccc(C(=O)O)cc6)C(C)(C)[C@@H]5CC[C@]43C)[C@@H]12` [Example 15, 4-((1R,3aS,5aR,5bR,7aR,11aS,11bR,13aR,13bS)-5a,5b,8,8,11a-pentamethyl-1-(3-(2-morpholinoethoxy)prop-1-en-2-yl)-3a-(3-(2-oxopyrrolidin-1-yl)propylcarbamoyl)-2,3,3a,4,5,5a,5b,6,7,7a,8,11,11a,11b,12,13,13a,13b-octadecahydro-1H-cyclopenta[a]chrysen-9-yl)benzoic acid], the EC50 is 1.83 nM.
With `CN(C)CCNC(=O)[C@]12CC[C@@H](NC(=O)OC(C)(C)C)[C@@H]1[C@H]1CC[C@@H]3[C@@]4(C)CC=C(C5=CCC(C(=O)O)CC5)C(C)(C)[C@@H]4CC[C@@]3(C)[C@]1(C)CC2` (stereo partly drawn) [Example A9, 4-((1R,3aR,5aR,5bR,7aR,11aS,11bR,13aR,13bR)-1-((tert-butoxycarbonyl)amino)-3a-((2-(dimethylamino)ethyl)carbamoyl)-5a,5b,8,8,11a-pentamethyl-2,3,3a,4,5,5a,5b,6,7,7a,8,11,11a,11b,12,13,13a,13b-octadecahydro-1H-cyclopenta[a]chrysen-9-yl)cyclohex-3-enecarboxylic acid], the EC50 is 1.15 nM.
